From article PMC4559766 (Scientific Reports, 2015)
Several values for one entry are separate records, joined by “and”; a condition that tells them apart may be missing. Equal entries are not always repeated.

Legend:
Du145 transplanted tumor [1] = assay: Microvessel density of removed tumors (anti-CD31 immunohistochemistry, Weidner method); format: in vivo, BALB/c-nu/nu nude mice; conditions: tumors removed after 4 weeks of administration, anti-CD31, n = 6
Experimental: (§1) Four weeks after administration, the mice were executed, and the tumors of different groups were removed and fixed with 10% neutral formalin or 2.5% glutaraldehyde. The fixed tumor tissue slides were subjected to Hematoxylin-eosin (HE) staining, immunohistochemistry in which anti-CD31 antibody and biotin-labeled IgG were respectively used as the first and second antibody, and TEM analysis. The microvessel densitied (MVD) in different tumor tissues was calculated using the Weidner method.

[2] = Blood biochemical indexes of liver and kidney function in tumor-bearing nude mice; conditions: serum at end of 4 weeks of administration, n = 6
Experimental: The blood was collected and centrifuged at the end of administration for 4 weeks. The serum was placed into eppendorf (EP) tube and immediately sent to the First Affiliated Hospital of Jinan University where several tests closely related to liver/kidney function were performed, and the blood biochemical indexes AST, ALT, AST/ALT, ALB, GLB, ALB/GLB, DBILI, IBILI, TBILI, BUN and CREA were obtained.

Du145 transplanted tumor [3] = assay: Subcutaneous Du145 transplanted tumor in nude mice; format: in vivo, BALB/c-nu/nu nude mice; conditions: tail vein once a day for 4 weeks; 0.1 ml of 40 nM RMP16 or P16, estramustine 60 mg/kg; by average tumor weight versus NaCl group; n = 6
Experimental: Thirty male 4-week-old BALB/c-nu/nu nude mice (17–19 g), were divided into five groups. CK group (blank control) was the mice which were not inoculated Du145 cells, and the remaining four groups received inoculation of Du145 cells. 0.2 ml of Du145 cells suspension with the concentration of 1.5 × 10^7 cells/ml was injected subcutaneously into the right side of back of nude mice. […] The weights and volumes of tumors in different groups were measured once every four days, and tumor growth curves for each group were plotted.

Factor Xa = assay: In vitro factor Xa enzyme digestion half-life; format: in vitro ADME; conditions: FXa 0.112 unit, 37 °C, 0-48 hours, HPLC-ESI-MS
Experimental: FXa (0.112 unit) were added into the mixture. After being thoroughly mixed, the mixture was divided into six aliquots to six PCR tubes and hydrolyzed at 37 °C in dark for 48 hours. Samples were respectively obtained at different time points (0, 12, 24, 36 and 48 hours) and each of samples was boiled for 5 minutes to quench the reaction and centrifuged.

[4] = tested on: chick chorioallantoic membrane; assay: Chick chorioallantoic membrane model of angiogenesis; format: in vivo; conditions: 72 hours at 37 °C
Experimental: Thirty fertilized chick embryos were randomly divided into five groups and incubated in the thermostatic incubator at 37 °C for six days (blunt end up). Drill a small window about 1 cm × 1 cm on the eggshell on the gas chamber side of chick embryo, meanwhile, also drill a small hole at the gas chamber, so that an artificial gas chamber was formed at the window. After removing the shell and shell membrane, the chicken chorioallantoic membrane (CAM) was exposed. […] The window was sealed with transparent tape, and chick embryos were incubated at 37 °C for 72 hours in thermostatic incubator.

[5] = tested on: human mammary non-tumorigenic epithelial cells MCF10A; assay: Proliferation of non-tumorigenic epithelial cells MCF10A (Cell Counting Kit-8); format: cell-based; conditions: 20–900 nM, 48 hours
Experimental: (§2) Du145, Raji, K562, Eca109, HeLa, MCF-7, MDA-MB-231 cells or non-tumorigenic epithelial cells MCF10A and HUVEC cells in logarithmic growth phase were respectively seeded into 96-well plates with the number of 8000 cells per well and incubated for 24 hours. […] The cells were counted with Cell Counting Kit-8. The IC50 was calculated using SPSS 17.0-Logit.

[6] = target: T1, recombinant human TNFRII (hTNFRII) (Homo sapiens, UniProt P20333); assay: SPR binding affinity to hTNFR II (BIAcore 3000); conditions: SPR and ITC
T1 construct: purchased Sino Biological Inc
T1 sequence (P20333 23-257 limits assumed): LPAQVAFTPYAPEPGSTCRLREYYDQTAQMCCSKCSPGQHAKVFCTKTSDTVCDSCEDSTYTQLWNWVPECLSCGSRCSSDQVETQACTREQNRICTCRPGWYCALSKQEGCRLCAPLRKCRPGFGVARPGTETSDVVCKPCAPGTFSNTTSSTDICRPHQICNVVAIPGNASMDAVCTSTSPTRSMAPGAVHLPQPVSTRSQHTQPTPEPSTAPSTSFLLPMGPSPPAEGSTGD
Text: (§3) BIAcore kinetic evaluation Ver. 4.1 software and Microcal ORIGIN Ver. 5.0 software were respectively used to determine the dissociation constant (KD).

[7] = target: T2, recombinant human TNFRI (hTNFRI) (Homo sapiens, UniProt P19438); assay: SPR binding affinity to hTNFR I (BIAcore 3000); conditions: SPR and ITC
T2 construct: purchased Sino Biological Inc
T2 sequence (P19438 30-211 limits assumed): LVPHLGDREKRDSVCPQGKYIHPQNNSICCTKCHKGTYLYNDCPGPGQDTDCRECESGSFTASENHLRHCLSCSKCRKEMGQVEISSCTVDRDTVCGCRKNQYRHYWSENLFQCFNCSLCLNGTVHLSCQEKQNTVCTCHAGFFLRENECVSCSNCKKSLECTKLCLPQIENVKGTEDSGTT
Text: as §3

[8] = target: T3, human TNFRI of ML-la cells (Homo sapiens, UniProt P19438); assay: Competition receptor binding assay, [125I]TNF α displacement from TNFRI; design: unit not given beside the values
T3 construct: ML-la cells (a human myelomonoblastic leukemia cell line, 1 × 10^6 cells/well) were preincubated with either anti-p60 antibody or anti-p80 antibody; endogenous in cells; host or cells: ML-la (ML-1a) human myelomonoblastic leukemia cells
T3 sequence (P19438 30-455): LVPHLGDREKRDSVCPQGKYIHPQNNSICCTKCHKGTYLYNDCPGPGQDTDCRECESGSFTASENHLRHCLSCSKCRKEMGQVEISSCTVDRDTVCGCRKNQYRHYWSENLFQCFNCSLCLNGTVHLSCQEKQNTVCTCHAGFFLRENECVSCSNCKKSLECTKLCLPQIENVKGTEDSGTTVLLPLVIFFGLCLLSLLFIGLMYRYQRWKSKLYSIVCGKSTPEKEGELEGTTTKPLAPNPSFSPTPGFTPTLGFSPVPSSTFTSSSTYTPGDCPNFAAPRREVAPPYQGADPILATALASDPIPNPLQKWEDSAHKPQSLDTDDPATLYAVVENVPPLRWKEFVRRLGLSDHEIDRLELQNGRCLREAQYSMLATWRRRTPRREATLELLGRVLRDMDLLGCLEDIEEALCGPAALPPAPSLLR
Experimental: Free iodine was removed by gel filtration on a G-25 column equilibrated with phosphate-buffered saline containing 0.1% gelatin. […] Thereafter cells were washed three times with 150 μl of ice-cold phosphate-buffered saline containing 0.1% bovine serum albumin. Then each well was cut from the plate with a scissors, and cell-bound radioactivity was determined by an Apec-Series […] (ICN Biomedicals, Inc., Costa Mesa, CA)[51].

Du145 transplanted tumor [9] = assay: TEM of removed tumors, cells with typical apoptosis characteristic; format: in vivo, BALB/c-nu/nu nude mice; conditions: TEM of tumors removed after 4 weeks of administration
Experimental: as §1

Du145 cells [10] = assay: Cell cycle of Du145 cells, PI single staining-flow cytometry; format: cell-based, human; conditions: 20 nM, 48 hours
Experimental: (§4) Du145 cells in logarithmic growth phase were seeded into 6-well plates with number of 3 × 10^5 cells per well.

HUVEC cells = assay: Proliferation inhibition of HUVEC cells (Cell Counting Kit-8); format: cell-based, human; conditions: 20 nM, 48 hours
Experimental: as §2

[11] = Pharmacokinetics in BALB/c mice after intravenous injection
Experimental: Blood samples were collected by eye bleed from three mice at per time point prior to dosing and from 0.5 to 24 hours postdosing, and the plasma portion was analyzed by using an electrospray ionization, LC/MS/MS method described previously[48]. […] Tri (2-carboxyethyl) phosphine hydrochloride (TCEP) was used as a reducing agent to enhance peptide recovery and was added to all samples at a final concentration of 2 mM. After removing the plasma proteins through adding acetonitrile and centrifugation, the supernatant was transferred to another 96-well plate. Samples were analyzed by LC/MS/MS. Pharmacokinetic parameters were fitted to a two-compartment elimination model, and drug exposure (AUC), elimination half-life (t1⁄2), volume of distribution (Vd) and the clearance (CL) were calculated using WinNonlin Ver.

Du145 cells [12] = assay: Apoptosis of Du145 cells, Annexin V-FITC/PI double staining-flow cytometry; format: cell-based, human
Experimental: as §4

[13] = BALB/c, mouse, plasma, iv, 5 mg/kg

CC[C@H](C)[C@H](NC(=O)[C@H](CCCNC(=N)N)NC(=O)[C@H](CO)NC(=O)[C@@H](NC(=O)[C@@H](NC(=O)[C@H](Cc1c[nH]cn1)NC(=O)[C@@H](NC(=O)[C@H](CC(C)C)NC(=O)[C@H](CC(C)C)NC(=O)[C@H](CCCNC(=N)N)NC(=O)CNC(=O)[C@H](CCC(=O)O)NC(=O)[C@@H](NC(=O)[C@H](Cc1c[nH]c2ccccc12)NC(=O)[C@H](CO)NC(=O)[C@H](CO)NC(=O)[C@@H]1CCCN1C(=O)[C@H](CCCNC(=N)N)NC(=O)[C@H](CCC(N)=O)NC(=O)[C@H](Cc1c[nH]c2ccccc12)NC(=O)[C@@H](N)CCSC)[C@@H](C)CC)[C@@H](C)O)[C@@H](C)O)[C@@H](C)CC)C(=O)N[C@@H](C)C(=O)N[C@H](C(=O)N[C@@H](CO)C(=O)N[C@@H](Cc1ccc(O)cc1)C(=O)N[C@@H](CCC(N)=O)C(=O)N[C@H](C(=O)N[C@@H](CCCCN)C(=O)N[C@H](C(=O)N[C@@H](CC(N)=O)C(=O)N[C@@H](CC(C)C)C(=O)N[C@@H](CC(C)C)C(=O)O)C(C)C)[C@@H](C)O)C(C)C [RMP16]
microvessel density (MVD) (Du145 transplanted tumor [1]): 6.4 ± 0.62 | ALB [2]: 17.2 ± 0.2 g/L | ALT [2]: 100.5 ± 20.5 U/L | AST [2]: 154 ± 28 U/L | CREA [2]: 10.5 ± 0.5 µM | DBILI [2]: 3 ± 0.7 µM | GLB [2]: 41.7 ± 1 g/L | IBILI [2]: 9.25 ± 0.55 µM | TBILI [2]: 12.25 ± 0.15 µM | tumor inhibition rate (Du145 transplanted tumor [3]): ~80% and 78.11% | factor Xa enzyme digestion half-life in the presence of HSA (Factor Xa; 10 μM peptide in PBS with 2 μM HSA): 15.83 h | half-life at 10 μM (Factor Xa; factor Xa (FXa) enzyme digestion in PBS without HSA, 10 μM peptide in PBS without HSA, read-out: factor Xa enzyme digestion half-life in the absence of HSA (converted)): 9.72 h | vessel branch points, dose of 2 μg ([4]; 2 μg on filter membrane, n = 6): 28.02 ± 1.37 | inhibition rate of angiogenesis, 2 μg ([4]; 2 μg on filter membrane, versus NaCl group): 54.13 ± 5.13% | vessel branch points, dose of 4 μg ([4]; 4 μg on filter membrane, n = 6): 12.31 ± 2.95 | inhibition rate of angiogenesis, 4 μg ([4]; 4 μg on filter membrane, versus NaCl group): 79.94 ± 4.64% | effect on proliferation of MCF10A cells [5]: not significant effect | bound less strongly to hTNFRII than did TNF α [6]: ~6600 times | binding affinity for hTNFRI higher than that for hTNFRII [7]: ~410 times | bound less strongly to hTNFRI than did TNF α [7]: ~4.5 times | IC50 of displacing [125I]TNF α from TNFRI as multiple of that from TNFRII [8]: 1/400 | percent of the tumor cells with typical apoptosis characteristic (Du145 transplanted tumor [9]): about 79.6% | increase of Du145 cells remaining in G0/G1 phase (Du145 cells [10]): 13.1% | reduction of Du145 cells remaining in S phase and G2/M phase (Du145 cells [10]): 12.9% | effect on proliferation of HUVEC (HUVEC cells): significantly inhibited the proliferation | AUC [11, 13]: 1360 µg·h/mL | Vd [11, 13]: 0.0695 L/kg | clearance [11, 13]: 3.68 mL/h/kg | half-life [11, 13]: 13.1 h | half-life in mice ([11]; in mice, as stated in abstract): 13.11 h | increase of apoptosis rate for Du145 cells (Du145 cells [12]; 20 nM, 48 h, Annexin V-FITC/PI flow cytometry, versus PBS): 14.21% | cell pro-apoptotic effect after TNFRI blocking (Du145 cells [12]; Du145 cells pre-incubated with 100 nM H398 (TNFRI-selective inhibitor) for 30 minutes at 37 °C before 20 nM RMP16): disappeared
